# Laboratory results from ChEMBL document CHEMBL5500409, “Discovery of 5-(Piperidin-4-yl)-1,2,4-oxadiazole Derivatives as a New Class of Human Caseinolytic Protease P Agonists for the Treatment of Hepatocellular Carcinoma” (J Med Chem, 2024).
# Target: T1, ATP-dependent Clp protease proteolytic subunit, mitochondrial (Homo sapiens, UniProt Q16740)
# Experiment: Agonist activity at N-terminal SUMO tagged human ClpP transfected in Escherichia coli assessed as induction of alpha-casein degradation preincubated for 10 mins followed by alpha-casein addition and measured after 2 hrs by brilliant blue staining based SDS-PAGE analysis
# Details: not given
# T1 sequence (Q16740 whole entry): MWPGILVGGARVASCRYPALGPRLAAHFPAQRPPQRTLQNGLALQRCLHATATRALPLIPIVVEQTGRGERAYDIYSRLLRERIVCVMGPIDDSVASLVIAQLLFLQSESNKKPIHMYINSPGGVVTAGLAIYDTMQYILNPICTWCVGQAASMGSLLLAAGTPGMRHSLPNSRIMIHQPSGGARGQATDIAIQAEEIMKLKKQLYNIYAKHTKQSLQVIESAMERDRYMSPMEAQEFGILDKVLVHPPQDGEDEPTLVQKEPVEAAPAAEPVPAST
row,SMILES,EC50 [µM]
1,O=C(c1ccc(F)cc1)N1CCC[C@H](c2nc(-c3ccc(F)cc3)no2)C1,29.7

# System: HCCLM3
# Experiment: cells
# Details: Homo sapiens, HCCLM3, 72 h
# Description: Antiproliferative activity against human HCCLM3 cells assessed as inhibition of cell proliferation measured after 72 hrs by MTT assay
row,SMILES,IC50 [µM]
1,O=C(c1ccc(F)cc1)N1CCC[C@H](c2nc(-c3ccc(F)cc3)no2)C1,66.4
2,N#Cc1cccc(CN2CCC(c3nc(Cc4ccc(F)c(Br)c4)no3)CC2)c1,3.7
3,N#Cc1cccc(CN2CCC(c3nc(Cc4ccc(Br)c(F)c4)no3)CC2)c1,6.4
4,N#Cc1cccc(CN2CCC(c3nc(Cc4ccc(Cl)cc4F)no3)CC2)c1,9.3
5,N#Cc1cccc(CN2CCC(c3nc(Cc4cc(F)c(F)c(F)c4)no3)CC2)c1,4.8
6,N#Cc1cccc(CN2CCC(c3nc(Cc4cccc(F)c4)no3)CC2)c1,9.8
7,N#Cc1cccc(CN2CCC(c3nc(Cc4cccc(C(F)(F)F)c4)no3)CC2)c1,7.2
8,N#Cc1cccc(CN2CCC(c3nc(Cc4ccccc4)no3)CC2)c1,7.7
9,N#Cc1cccc(CN2CCC(c3nc(Cc4ccc(F)cc4)no3)CC2)c1,5.9
10,N#Cc1cccc(CN2CCC(c3nc(Cc4ccc(Br)cc4)no3)CC2)c1,6.7
11,N#Cc1cccc(CN2CCC(c3nc(Cc4ccc(Cl)c(F)c4)no3)CC2)c1,7.6
12,N#Cc1cccc(CN2CCC(c3nc(Cc4ccccc4F)no3)CC2)c1,7.9
13,N#Cc1cccc(CN2CCC(c3nc(Cc4ccc(Cl)cc4)no3)CC2)c1,8.9
14,N#Cc1cccc(CN2CCC(c3nc(Cc4ccc(F)c(F)c4)no3)CC2)c1,3.7
15,N#Cc1cccc(CN2CCC(c3nc(Cc4ccc(C(F)(F)F)cc4)no3)CC2)c1,9.2
16,CNC(=O)c1cc(Oc2ccc(NC(=O)Nc3ccc(Cl)c(C(F)(F)F)c3)cc2)ccn1 [SORAFENIB],6.3

# Target: T1, ATP-dependent Clp protease proteolytic subunit, mitochondrial
# Experiment: Agonist activity at human ClpP using Ac-WLA-AMC as substrate assessed as induction of substrate degradation
# Details: not given
row,SMILES,EC50 [µM]
1,O=C(c1ccc(F)cc1)N1CCC[C@H](c2nc(-c3ccc(F)cc3)no2)C1,1.2

# System: HCCLM3
# Experiment: Antitumor activity against human HCCLM3 cells xenografted in female Balb/c nude mouse assessed as tumor growth inhibition at 20 mg/kg, ip tumor inoculated for 5 days followed by compound administration every 2 days for 4 weeks relative to control
# Details: HCCLM3, 672 h, read-out: TGI
row,SMILES,inhibition in vivo at 20 mg/kg [%]
1,CNC(=O)c1cc(Oc2ccc(NC(=O)Nc3ccc(Cl)c(C(F)(F)F)c3)cc2)ccn1 [SORAFENIB],80.2

# System: HCCLM3
# Experiment: cells
# Details: Homo sapiens, HCCLM3, 72 h, read-out: INH
# Description: Antiproliferative activity against human HCCLM3 cells assessed as inhibition of cell proliferation at 10 uM measured after 72 hrs by MTT assay relative to control
row,SMILES,inhibition at 10 µM [%]
1,N#Cc1cccc(CN2CCC(c3nc(Cc4ccc(F)c(Br)c4)no3)CC2)c1,83.2
2,N#Cc1cccc(CN2CCC(c3nc(Cc4cc(F)cc(F)c4)no3)CC2)c1,46.4
3,N#Cc1cccc(CN2CCC(c3nc(Cc4ccc(Br)c(F)c4)no3)CC2)c1,74.4
4,N#Cc1cccc(CN2CCC(c3nc(Cc4ccc(Cl)cc4F)no3)CC2)c1,55.9
5,O=C(c1ccc(F)cc1)N1CCC[C@@H](c2nc(-c3ccc(F)cc3)no2)C1,17.8
6,O=S(=O)(NCCc1nc(Cc2ccc(F)cc2)no1)c1ccc(F)cc1,13.2
7,O=C(Cc1ccc(F)cc1)N1CC(c2nc(Cc3ccc(F)cc3)no2)C1,11.5
8,N#Cc1cccc(CN2CCC(c3nc(Cc4cc(F)c(F)c(F)c4)no3)CC2)c1,80.9
9,N#Cc1cccc(CN2CCC(c3nc(Cc4cccc(F)c4)no3)CC2)c1,50.4
10,N#Cc1cccc(CN2CCC(c3nc(-c4ccc(C(F)(F)F)cc4)no3)CC2)c1,19.5
11,N#Cc1cccc(C(=O)N2CCC(c3nc(Cc4ccc(F)cc4)no3)CC2)c1,22.4
12,N#Cc1cccc(CN2CCC(c3nc(Cc4cccc(C(F)(F)F)c4)no3)CC2)c1,73.6
13,Fc1ccc(Cc2noc(C3CCN(Cc4ccc(C(F)(F)F)cc4)CC3)n2)cc1,18.8
14,O=C(c1ccc(F)cc1)N1CC[C@H](c2nc(Cc3ccc(F)cc3)no2)C1,6
15,O=C(c1ccc(F)cc1)N1CCC[C@H](c2nc(Cc3ccc(F)cc3)no2)C1,9.3
16,N#Cc1cccc(CN2CCC(c3nc(-c4cccc(C(F)(F)F)c4)no3)CC2)c1,30.3
17,N#Cc1cccc(CN2CCC(c3nc(Cc4ccc(F)cc4F)no3)CC2)c1,36.4
18,N#Cc1cccc(CN2CCC(c3nc(Cc4ccc(Br)cc4F)no3)CC2)c1,23.7
19,Cc1ccccc1Cc1noc(C2CCN(Cc3cccc(C#N)c3)CC2)n1,12.3
20,N#Cc1cccc(CN2CCC(c3nc(Cc4ccccc4)no3)CC2)c1,64.5
21,O=C(c1ccc(F)cc1)N1CCC(c2nc(Cc3ccc(F)cc3)no2)CC1,22.1
22,O=C(Cc1ccc(F)cc1)N1CC[C@H](c2nc(Cc3ccc(F)cc3)no2)C1,5.8
23,N#Cc1cccc(CN2CCC(c3nc(Cc4ccc(F)cc4)no3)CC2)c1,77.5
24,O=C(NCCc1nc(Cc2ccc(F)cc2)no1)c1ccc(C(F)(F)F)cc1,15.5
25,Fc1ccc(CN2CCC[C@@H](c3nc(-c4ccc(F)cc4)no3)C2)cc1,11
26,O=C(c1ccc(F)cc1)N1CC(c2nc(Cc3ccc(F)cc3)no2)C1,23

row,SMILES,inhibition at 10 µM [%]
1,O=C(Cc1ccc(F)cc1)N1CCC[C@@H](c2nc(-c3ccc(F)cc3)no2)C1,18.3
2,N#Cc1cccc(CN2CCC(c3nc(Cc4ccc(Br)cc4)no3)CC2)c1,70
3,Fc1ccc(Cc2noc([C@H]3CCCN3Cc3ccc(F)cc3)n2)cc1,32.5
4,Fc1ccc(Cc2noc(C3CCN(Cc4ccccn4)CC3)n2)cc1Cl,11.1
5,N#Cc1cccc(CN2CCC(c3nc(Cc4ccc(Cl)c(F)c4)no3)CC2)c1,71.1
6,Fc1ccc(Cc2noc([C@H]3CCCN3Cc3ccc(C(F)(F)F)cc3)n2)cc1,13.3
7,Fc1ccc(Cc2noc(C3CCN(Cc4ccc(F)cc4)CC3)n2)cc1,30
8,N#Cc1cccc(CN2CCC(c3nc(Cc4cc(F)ccc4F)no3)CC2)c1,12.2
9,N#Cc1cccc(CN2CCC(c3nc(Cc4ccc(F)cc4Cl)no3)CC2)c1,10.4
10,N#Cc1cccc(CC(=O)N2CCC(c3nc(Cc4ccc(F)cc4)no3)CC2)c1,31.5
11,Fc1ccc(Cc2noc([C@H]3CCCN(Cc4ccc(F)cc4)C3)n2)cc1,22.5
12,N#Cc1cccc(CN2CCC(c3nc(Cc4ccccc4F)no3)CC2)c1,68.9
13,N#Cc1cccc(CN2CCC(c3nc(Cc4ccc(Cl)cc4)no3)CC2)c1,61.5
14,O=C(Cc1ccc(F)cc1)N1CCC[C@H](c2nc(Cc3ccc(F)cc3)no2)C1,5.3
15,N#Cc1cccc(CN2CCC(c3nc(Cc4ccc(F)c(F)c4)no3)CC2)c1,88.3
16,N#Cc1cccc(CN2CCC(c3nc(Cc4ccc(C(F)(F)F)cc4)no3)CC2)c1,56.4
17,N#Cc1cccc(CN2CCC(c3nc(Cc4cccc(F)c4F)no3)CC2)c1,11.7
18,N#Cc1cccc(C(=O)NCCc2nc(Cc3ccc(F)cc3)no2)c1,16.1
19,N#Cc1cccc(CN2CC(c3nc(Cc4ccc(F)cc4)no3)C2)c1,5.9
20,O=C(NCCc1nc(Cc2ccc(F)cc2)no1)c1ccc(F)cc1,24.3
21,N#Cc1cccc(CN2CCC[C@@H]2c2nc(Cc3ccc(F)cc3)no2)c1,38.8
22,Fc1ccc(Cc2noc(C3CCN(Cc4cccnc4)CC3)n2)cc1Cl,16.7
23,N#Cc1cccc(CN2CCC(c3nc(Cc4c(F)c(F)c(F)c(F)c4F)no3)CC2)c1,12.8
24,Cc1ccc(Cc2noc(C3CCN(Cc4cccc(C#N)c4)CC3)n2)cc1,20.6
25,N#Cc1cccc(CN2CCC(c3nc(Cc4ccc(F)cc4Br)no3)CC2)c1,12.7
